The results in this text go back to ChEMBL document CHEMBL1129033, “Synthesis and antibacterial activity of U-100592 and U-100766, two oxazolidinone antibacterial agents for the potential treatment of multidrug-resistant gram-positive bacterial infections” (1996).

The subject of assay [1] is Clostridium perfringens. Kind of assay: In vitro antibacterial activity against Clostridium perfringens strain ATCC 13124. In kind it is functional.
The test system of assay [2] is Bacteroides fragilis. The experiment in a line: In vitro antibacterial activity against Bacteroides fragilis strain ATCC 25285. Type of assay: functional.
In assay [3] the test system is Escherichia coli. Kind of assay: In vitro antibacterial activity against Escherichia coli strain ATCC 25922. Type of assay: functional.
Assay [4] has as its system Streptococcus pneumoniae. The experiment in a line: In vitro antibacterial activity against Streptococcus pneumoniae strain UC 9912. Type of assay: functional.
Assay [5] relates to Mycobacterium tuberculosis. The experiment in a line: In vitro antibacterial activity against Mycobacterium tuberculosis strain H37Rv. Type of assay: functional.
In assay [6] the test system is Streptococcus pyogenes. The experiment in a line: In vitro antibacterial activity against Streptococcus pyogenes strain UC 152. Type of assay: functional.
The test system of assay [7] is Enterococcus faecalis. Kind of assay: In vitro antibacterial activity against Enterococcus faecalis strain ATCC 29212. In kind it is functional.
In assay [8] the test system is Mus musculus. The experiment in a line: In vivo antibacterial activity against Staphylococcus aures strain UC 9213 administered perorally in mice. In kind it is functional. The note with it: po.
The test system of assay [9] is Mus musculus. The experiment in a line: (§1) In vivo antibacterial activity against Staphylococcus aures strain UC 9213 administered subcutaneously in mice. In kind it is functional. The note with it: sc.
For assay [10], the system named is Staphylococcus aureus. The experiment in a line: In vitro antibacterial activity against Staphylococcus aures strain UC12673. Type of assay: functional.
In assay [11] the test system is Pseudomonas aeruginosa. The experiment in a line: In vitro antibacterial activity against Pseudomonas aeruginosa strain ATCC 27853. Type of assay: functional.
For assay [12], the system named is Klebsiella pneumoniae. The experiment in a line: In vitro antibacterial activity against Klebsiella pneumoniae strain UC 12081. Type of assay: functional.
The subject of assay [13] is Staphylococcus epidermidis. Kind of assay: In vitro antibacterial activity against Staphylococcus epidermis strain UC 30031. Type of assay: functional.
Assay [14] deals with Staphylococcus aureus. Kind of assay: In vitro antibacterial activity against Staphylococcus aures strain ATCC 29213. In kind it is functional.
The test system of assay [15] is Mus musculus. Kind of assay: In vivo antibacterial activity against Enterococcus faecalis strain UC 12379 administered perorally in mice. Type of assay: functional. The note with it: po.
The test system of assay [16] is Enterococcus faecium. The experiment in a line: In vitro antibacterial activity against Enterococcus faecium strain UC12712. In kind it is functional.
In assay [17] the test system is Mus musculus. Kind of assay: In vivo antibacterial activity against Enterococcus faecium strain UC 15090 administered perorally in mice. The note with it: po. In kind it is functional.
Assay [18] concerns Staphylococcus aureus. Kind of assay: In vitro antibacterial activity against Staphylococcus aures strain UC 9213. Type of assay: functional.
For assay [19], the system named is Mus musculus. The experiment in a line: In vivo antibacterial activity against Enterococcus faecalis strain UC 12379 administered subcutaneously in mice. Type of assay: functional. The following applies: sc.
Assay [20] has as its system Mus musculus. Described as §1. Type of assay: functional. The following applies: sc. The source holds these as a separate data set.
Assay [21] deals with Mycobacterium tuberculosis. The experiment in a line: In vitro antibacterial activity against Mycobacterium tuberculosis strain H37Rv; f means comparative control value for isoniazid was 0.20 ug/mL. Type of assay: functional, organism-based.
For assay [22], the system named is Mus musculus. Kind of assay: In vivo antibacterial activity against Enterococcus faecium strain UC 15090 administered subcutaneously in mice. In kind it is functional. The note with it: sc.

One may read the MIC as the lowest concentration that inhibits growth of the organism. As usually defined, the ED50 is the midpoint of the dose-response relation.

In brackets after ≈: the same amount, converted by molar mass. Some results are limits rather than exact numbers.

With `CC(=O)NC[C@H]1CN(c2ccc(N3CCN(C(=O)CO)CC3)c(F)c2)C(=O)O1` [EPEREZOLID], the MIC in assay [1] was 1 µg/mL (≈ 2.54 µM); in assay [2] it was 1 µg/mL (≈ 2.54 µM); in assay [3], over 64 µg/mL; in [4] it was 0.5 µg/mL (≈ 1.27 µM); in assay [5], under 0.125 µg/mL; in [6], 1 µg/mL (≈ 2.54 µM). The MIC in [7] is 2 µg/mL (≈ 5.07 µM); in [10] it was 2 µg/mL (≈ 5.07 µM); in assay [11], over 64 µg/mL; in assay [12], over 64 µg/mL; in assay [13] it was 1 µg/mL (≈ 2.54 µM); in [14], 4 µg/mL (≈ 10.1 µM). In addition, the MIC in assay [16] was determined as 1 µg/mL (≈ 2.54 µM); in assay [18], 4 µg/mL (≈ 10.1 µM). The ED50 in assay [8] amounted to 1.9 mg/kg; in [9], 0.9 mg/kg; in [15] it was 1.3 mg/kg; in [17], 12.5 mg/kg.

Consider `CC(=O)NC[C@H]1CN(c2ccc(N3CCOCC3)c(F)c2)C(=O)O1` [LINEZOLID], for which the MIC in assay [1] was 1 µg/mL (≈ 2.96 µM); in [2], 1 µg/mL (≈ 2.96 µM); in assay [3] it was over 64 µg/mL; in assay [5], under 0.125 µg/mL; in [6], 2 µg/mL (≈ 5.93 µM); in assay [11] it was over 64 µg/mL. Moreover, the figures for the MIC in [12], in [13] and in assay [16] were over 64 µg/mL, 1 µg/mL (≈ 2.96 µM) and 2 µg/mL (≈ 5.93 µM), respectively. Further, the ED50 in [8] is 5.6 mg/kg; in assay [9], 2 mg/kg; in [15], 10 mg/kg; in assay [17] it was 24 mg/kg.

Turning to `CN[C@H](CC(C)C)C(=O)N[C@H]1C(=O)N[C@@H](CC(N)=O)C(=O)N[C@H]2C(=O)N[C@H]3C(=O)N[C@H](C(=O)N[C@H](C(=O)O)c4cc(O)cc(O)c4-c4cc3ccc4O)[C@H](O)c3ccc(c(Cl)c3)Oc3cc2cc(c3O[C@@H]2O[C@H](CO)[C@@H](O)[C@H](O)[C@H]2O[C@H]2C[C@](C)(N)[C@H](O)[C@H](C)O2)Oc2ccc(cc2Cl)[C@H]1O` [VANCOMYCIN], the MIC is 1 µg/mL (≈ 0.69 µM) in assay [1]; over 16 µg/mL in [2]; over 64 µg/mL in assay [3]; 0.5 µg/mL (≈ 0.345 µM) in assay [4]; “Comparitive control valie for isonazid was 0.20 ug/ml” in [21]; over 64 µg/mL in [11]. The MIC in assay [12] is over 64 µg/mL. Also, the ED50 in [19] was under 0.6 mg/kg; in assay [20] it was 3.9 mg/kg; in assay [9], 3.9 mg/kg; in [22], over 100 mg/kg.
